Results from patent US9512176B2, “Age inhibitors” (Centre National de la Recherche Scientifique, priority 2005, dated 2016).
Non-standard residues stand in square brackets, D forms with d. Residues, ends and D or L forms follow the SMILES beside them. Dap = NC[C@H](N)C(=O)O

How the values were obtained:
ribonuclease A [1] = experiment: Enzymatic activity of ribonuclease A after treatment with methylglyoxal and inhibitors (methylene blue RNA staining); format: biochemical; settings: ribonuclease A treated with methylglyoxal (MG) + inhibitor in equimolar quantity, 37° C.; control RNase 100, RNase + methylglyoxal 10.11%
Method: (§1) Ribonuclease A and lysozyme (10 mg/ml) are incubated in the presence of methylglyoxal (10 mM) or in the presence of methylglyoxal and one of the inhibitors according to the present invention in an equimolar quantity at 37° C. After 48 hours of incubation, the proteins are analyzed by polyacrylamide gel electrophoresis (8%-16% SDS PAGE gel).
The enzymatic activity of ribonuclease A after treatment with methylglyoxal and the various inhibitors according to the present invention is measured using the methylene blue RNA staining technique of Greiner-Stöffele et al. (Anal. Biochem. (1996) 240, 24).

EA.hy 926 cell line = experiment: Growth of EA.hy 926 endothelial cells with MG scavengers and/or methylglyoxal (MTT); format: cell-based, human
Method: The cells used for the test are from the EA.hy 926 cell line, which are endothelial cells obtained by the hybridization of human umbilical vein endothelial cells (HUVECs) with lung cancer cells (A549). The EA.hy 926 endothelial cells are incubated in Dulbecco's modified Eagle's Medium (DMEM) enriched with 10% fetal calf serum. The cells are incubated in 12-well plates. Each well initially contains 100,000 cells. Cell growth is achieved by incubating the cells in 2 ml of culture medium after adding or not adding the various potential inhibitors (1 mM) and/or methylglyoxal (600 μM) for 48 hours at 37° C. in a moist atmosphere with 5% CO2.
The number of cells is evaluated in the following way:
The cells are stained using the (4,5-dimethylthiazol-2-yl)-2,5-diphenyltetrazolium bromide (MTT) assay. MTT penetrates in the cell where it is converted into formazan. The quantity of formazan formed is proportional to the number of living cells.
The results are expressed as a relative percentage of the number of cells after treatment compared to the number of control cells without treatment [100*OD (treated cells)/OD (control cells)]. Detection is carried out by UV/visible spectrophotometry at 570 nm.
Principle: MTT (yellow) penetrates the cell and is converted into an insoluble blue compound, formazan, by cleavage of its tetrazolium rings by the mitochondrial dehydrogenase enzymes of living cells. Formazan is solubilized by isopropanol. The number of cells is proportional to the quantity of formazan formed and its absorbance.

ribonuclease A [2] = experiment: SDS PAGE electrophoresis of ribonuclease A incubated with methylglyoxal and inhibitor; format: biochemical; settings: ribonuclease A 10 mg/ml, methylglyoxal 10 mM, inhibitor equimolar, 37° C., 48 hours
Method: as §1
The AGE inhibitors according to the present invention, namely L-DAPA-L-Leu (example 1) and L-DAPA-L-Ile (example 18), or AG (10 mM) are incubated with MG and ribonuclease A for […] at 37° C.

glyoxalase I = experiment: Glyoxalase I treated with methylglyoxal: non-denaturing electrophoresis and enzymatic activity; format: biochemical
Method: MG reacts with a protein's lysine and arginine residues, thus altering the charges on the modified polypeptide. […] The exposure of glyoxalase I to MG (10 mM) for 24 hours increases the mobility of the protein toward the positive electrode, a change that is consistent with the loss of positive charges from the ε-amino and guanidino groups and the gain of negative charges.
The incubation of glyoxalase I, a key protein in the α-oxoaldehyde detoxification system, in the presence of methylglyoxal, modifies the protein. This modification causes a change in charge and a 50% decrease in enzymatic activity compared to the control.

Human insulin = experiment: Modification of insulin by methylglyoxal (HPLC); format: biochemical; settings: insulin 0.034 mM, methylglyoxal 3.4 mM, scavenger 4.08 mM, pH 7.45, 37° C.
Method: FIG. 1 presents the comparative effects of dicarbonyl scavengers in the form of dihydrochloride according to the present invention and the comparison with DAPA on the modification of insulin (Ins) by methylglyoxal (MG). The percentage of insulin is indicated following incubation with methylglyoxal in the presence or absence of dicarbonyl scavengers. Insulin (0.034 mM) is incubated in vitro in a 10 mM phosphate buffer, pH 7.45 (containing 0.1 M NaCl) with methylglyoxal (3.4 mM) in the presence of dicarbonyl scavengers (4.08 mM) for 21 hours at 37° C. Insulin concentration is measured by HPLC (same conditions as in FIG. 3).
FIGS. 3 to 8 present the results obtained by HPLC for two compounds according to the present invention, L-DAPA-L-Leu (example 1) and L-DAPA-L-Val (example 23), on insulin modifications induced by methylglyoxal. It can be observed that these modifications are prevented. The HPLC conditions are as follows: C-18, Symmetry 300 (4.6×250 mm) column, injection volume 100 μl of reaction mixture; flow 1 ml/min; temperature 40° C.; solvent A: H2O+0.1% TFA; solvent B: 60/40 CH3CN/H2O+0.1% TFA; linear gradient of 50% B to 55% B in 15 minutes; detection: UV at 215 nm: PDA (chromatograms extracted at 220 nm).
Human insulin (Ins) is incubated with methylglyoxal (MG) under physiological conditions. After 24 hours, the insulin is completely modified, as illustrated in FIG. 1 (Ins+MG).
On the other hand, insulin is incubated with methylglyoxal in the presence of an equimolar quantity of the AGE inhibitors according to the present invention under physiological conditions.

somatostatin-14 = experiment: Somatostatin-14 modifications induced by methylglyoxal (HPLC); format: biochemical; settings: somatostatin-14 0.03 mm, methylglyoxal 3.6 mM, compound 4.3 mM, 24 hours at 37° C.
Method: FIGS. 9 and 10 present the results obtained by HPLC for two compounds according to the present invention, L-DAPA-L-Leu (example 1) and L-DAPA-L-Val (example 23), on somatostatin-14 modifications induced by methylglyoxal. HPLC conditions are as follows: C-18, Symmetry 300 (4.6×250 mm) column, injection volume 100 μl of reaction mixture; flow 1 ml/min; solvent A: H2O+0.1% TFA; solvent B: 80/20 CH3CN/H2O+0.1% TFA; linear gradient: from 20% B to 60% B in 15 minutes and isocratic from 60% B for 10 minutes; ambient temperature; detection: PDA (chromatograms extracted at 215 nm).
In these figures, (a) represents the results of somatostatin-14 alone; (b) represents the results of somatostatin-14+methylglyoxal; (c) represents the results of somatostatin-14+methylglyoxal+L-DAPA-L-Val (example 23) and (d) represents the results of somatostatin-14+methylglyoxal+L-DAPA-L-Leu (example 1).

Structure (SMILES): CC(C)C[C@H](NC(=O)[C@@H](N)CN)C(=O)O [example 1, L-DAPA-L-Leu.2HCl] (H-[Dap]-Leu-OH)
- Enzymatic activity (%) (ribonuclease A [1]): 93.91%
- cell survival when incubated with MG (EA.hy 926 cell line): 81%
- viability at 1000 µM (EA.hy 926 cell line; Homo sapiens, EA.hy 926, scavenger 1 mM + methylglyoxal 600 μM, 48 hours, relative to untreated control cells, MG alone 24, mean of 3 experiments, read-out: Cells + MG scavengers + Methylglyoxal (B)): 81%
- Difference (B) − (A) (EA.hy 926 cell line; Table 2, cells with scavenger + MG minus cells with scavenger alone): −13
- Cells + MG scavengers (A) (EA.hy 926 cell line; scavenger 1 mM, no methylglyoxal, 48 hours, number of cells relative to untreated control cells, mean of 3 experiments): 94%
- effect against suppression of cell growth by MG (EA.hy 926 cell line; scavenger + methylglyoxal): same trend
- difference between number of cells growing with compound and with MG and compound (EA.hy 926 cell line; values in brackets): −13
- protection from structural modifications (dimer form) caused by methylglyoxal (ribonuclease A [2]): provides protection
- gain of negative charge of glyoxalase I exposed to MG (glyoxalase I; MG 10 mM, 24 hours, non-denaturing electrophoresis): inhibits the gain of negative charge
- inhibition of glyoxalase I enzymatic activity and structural modification by methylglyoxal (glyoxalase I; MG alone: 50% decrease in enzymatic activity): prevents the inhibition exerted by methylglyoxal and protects against structural modifications
- modification of insulin by methylglyoxal (Human insulin): prevented
- somatostatin-14 modifications induced by methylglyoxal (somatostatin-14): prevent the modifications induced by methylglyoxal
